Measured values reported in EP4038084B1, “LIPOPEPTIDES, PHARMACEUTICAL COMPOSITION, COSMETIC COMPOSITION, AND LIPOPEPTIDES FOR USE AS A DRUG” (priority 2019, dated 2021).
Converted amounts (≈) assume the structure as drawn. “Also recorded” adds a separate entry of the source. Where a SMILES comes first, the peptide text is derived from it. [ ]: non-standard residue; d: D form. The star is where a group is joined. Palmitoyl = CCCCCCCCCCCCCCCC(=O)*; Myristoyl = CCCCCCCCCCCCCC(=O)*; Lauroyl = CCCCCCCCCCCC(=O)*; Dab = NCC[C@H](N)C(=O)O

Assays:
[1] = system: Staphylococcus epidermidis ATCC 12228; conditions: LB medium, 24 h at 30°C, OD 600 nm not greater than 0.05
[2] = system: Yersinia enterocolitica PCM 2081; conditions: LB medium, 24 h at 30°C, OD 600 nm not greater than 0.05
Excerpt: All bacterial strains were obtained from the Polish Collection of Microorganisms (PCM) or the American Type Culture Collection (ATCC). Gram-positive bacteria strains: Staphylococcus aureus ATCC 29213, Staphylococcus epidermidis ATCC 12228, and Enterococcus faecalis ATCC 14506. Gram-negative bacteria strains: Escherichia coli ST2-8624 O157:H7, Pseudomonas aeruginosa PAO1 PCM 499, Klebsiella pneumoniae PCM 1, Salmonella sv. Typhimurium TT622, and Yersinia enterocolitica PCM 2081. All strains were cultured in LB (lysogenic broth) medium.
10 mL of LB medium was inoculated with material from a single colony and cultured at 30°C overnight with shaking. Thereafter, the optical density of the overnight cultures (at 600 nm) was adjusted to 0.05 by dilution in a fresh portion of LB medium. The test compounds were dissolved in water. Serial dilutions of compounds were prepared in LB medium ranging from 5 to 50 µg/mL (final concentrations). The experiment was performed by adding 100 µL of each of the prepared dilutions to 100 µL of the diluted overnight bacterial culture in the wells of a 96-well titration plate. […] Optical density measurements were performed using TECAN Sunrise plate reader. Data were obtained from three independent experiments.

[3] = system: Enterococcus faecalis ATCC 14506; format: cell-based; conditions: LB medium, 24 h at 30°C, OD 600 nm not greater than 0.05
Protocol: (§1) Typhimurium TT622, and Yersinia enterocolitica PCM 2081. All strains were cultured in LB (lysogenic broth) medium.
(§2) The test compounds were dissolved in water. […] Data were obtained from three independent experiments.

[4] = system: Pseudomonas aeruginosa PAO1 PCM 499; format: cell-based; conditions: LB medium, 24 h at 30°C, OD 600 nm not greater than 0.05
Protocol: as §1, §2

[5] = system: Escherichia coli ST2-8624 O157:H7; format: cell-based; conditions: LB medium, 24 h at 30°C, OD 600 nm not greater than 0.05
Protocol: as §1, §2

[6] = system: Klebsiella pneumoniae PCM 1; format: cell-based; conditions: LB medium, 24 h at 30°C, OD 600 nm not greater than 0.05
Protocol: as §1, §2

[7] = system: Salmonella sv. Typhimurium TT622; test: Determination of the minimal inhibitory concentration (MIC); format: cell-based; conditions: LB medium, 24 h at 30°C, OD 600 nm not greater than 0.05
Protocol: as §1, §2

[8] = system: Staphylococcus aureus ATCC 29213; conditions: LB medium, 24 h at 30°C, OD 600 nm not greater than 0.05
[9] = system: Sheep red blood cells; format: cell-based
Protocol: (§3) Defibrinated sheep or horse blood was washed three times in PBS buffer (137 mM NaCl, 2.7 mM KCl, 8 mM Na2HPO4, 2 mM KH2PO4, pH 7.4) and diluted to obtain 2% (v/v) preparation of red blood cells (RBC). […] The experiment was performed by adding 190 µL of 2% RBC preparation to 10 µL of each of the prepared lipopeptide dilutions in the wells of a 96-well titer plate. As a positive control, Triton X-100 (2% final concentration) was used, instead of test compound preparations, and PBS buffer was used as a negative control. The samples were then incubated for 30 min at 30°C with shaking. After this time, the plate was centrifuged (1200 rpm) and 150 µL of the supernatant was transferred per well to another titration plate and the absorbance at 415 nm was measured using TECAN Sunrise plate reader. Based on the obtained results, the concentration of lipopeptides was determined at which up to 50% of hemolysis occurs in comparison with the positive control (HC50). Data were obtained from three independent experiments. The measurement results are shown in Table 3 and in the form of graphs in Figs. 7 and 8.

[10] = system: Horse red blood cells; format: cell-based
Protocol: as §3

[11] = system: Pseudomonas aeruginosa PAO1 PCM 499; test: Lipopeptide effect on the bacterial growth dynamics; format: cell-based; conditions: OD 600 nm every 60 min for 6 h after 2 h pre-incubation
Protocol: as §1
(§4) The effect of different concentrations of the test compounds on the bacterial growth was tested on 3 Gram-negative bacterial strains: Klebsiella pneumoniae PCM 1, Pseudomonas aeruginosa PAO1 PCM 499, and Yersinia enterocolitica PCM 2081 and one Gram-positive strain: Staphylococcus aureus ATCC 29213. The experiment was carried out in a similar way to the MIC determination, but in this case the diluted overnight cultures were pre-incubated for 2 h before adding diluted lipopeptide preparations. The bacterial growth was then monitored by measuring the optical density of the culture at 600 nm every 60 min for 6 h. Data were obtained from three independent experiments. The measurement results are shown as graphs in Figs. 1-3.

[12] = system: Yersinia enterocolitica PCM 2081; test: as above; format: cell-based; conditions: OD 600 nm every 60 min for 6 h after 2 h pre-incubation
Protocol: as §1, §4

[13] = system: Klebsiella pneumoniae PCM 1; test: as above; format: cell-based; conditions: OD 600 nm every 60 min for 6 h after 2 h pre-incubation
Protocol: as §1, §4

CCCCCCCCCCCCCCCC(=O)N[C@H](Cc1ccccc1)C(=O)N[C@@H](CCN)C(=O)N[C@@H](CCN)C(=O)N[C@@H](CC(C)C)C(N)=O [C16-fXXL, CH3(CH2)14C(O)-D-Phe-Dab-Dab-Leu-NH2, reference compound] (Palmitoyl-[dF][Dab][Dab]L-NH2)
MIC [1]: 5 µg/mL (≈ 6.98 µM)
MIC [2]: 30 µg/mL (≈ 41.9 µM)
MIC [3]: n.d. (n.d. = not determined, i.e., the MIC value was greater than 50 µg/mL)
MIC [4]: n.d. (n.d. = not determined, i.e., the MIC value was greater than 50 µg/mL)
MIC [5]: no activity
MIC [6]: n.d. (n.d. = not determined, i.e., the MIC value was greater than 50 µg/mL)
MIC [7]: n.d. (n.d. = not determined, i.e., the MIC value was greater than 50 µg/mL)
MIC [8]: 5 µg/mL (≈ 6.98 µM)
HC50 [9]: 30 µg/mL < HC50< 40 µg/mL
HC50 [10]: 30 µg/mL < HC50< 40 µg/mL

CCCCCCCCCCCCCC(=O)N[C@H](Cc1ccccc1)C(=O)N[C@@H](CCN)C(=O)N[C@@H](CCN)C(=O)N[C@@H](CC(C)C)C(N)=O [C14-fXXL, CH3(CH2)12C(O)-D-Phe-Dab-Dab-Leu-NH2] (Myristoyl-[dF][Dab][Dab]L-NH2)
MIC [1]: 5 µg/mL (≈ 7.27 µM)
MIC [2]: 10 µg/mL (≈ 14.5 µM)
MIC [3]: 30 µg/mL (≈ 43.6 µM)
MIC [4]: 20 µg/mL (≈ 29.1 µM)
MIC [5]: n.d. (n.d. = not determined, i.e., the MIC value was greater than 50 µg/mL)
MIC [6]: 20 µg/mL (≈ 29.1 µM)
MIC [7]: n.d. (n.d. = not determined, i.e., the MIC value was greater than 50 µg/mL)
MIC [8]: 5 µg/mL (≈ 7.27 µM)
HC50 [9]: 30 µg/mL < HC50< 40 µg/mL
HC50 [10]: 30 µg/mL < HC50< 40 µg/mL
effect on the bacterial growth dynamics [11]: equally strong effect of slowing down the Gram-negative bacterial growth dynamics; also recorded: slowed down the bacterial growth dynamics at much lower concentrations than that of the C16-fXXL lipopeptide
effect on the bacterial growth dynamics [12]: slowed down the bacterial growth dynamics at much lower concentrations than that of the C16-fXXL lipopeptide
effect on the bacterial growth dynamics [13]: slowed down the bacterial growth dynamics at much lower concentrations than that of the C16-fXXL lipopeptide

CCCCCCCCCCCC(=O)N[C@H](Cc1ccccc1)C(=O)N[C@@H](CCN)C(=O)N[C@@H](CCN)C(=O)N[C@@H](CC(C)C)C(N)=O [C12-fXXL, CH3(CH2)10C(O)-D-Phe-Dab-Dab-Leu-NH2] (Lauroyl-[dF][Dab][Dab]L-NH2)
MIC [1]: 5 µg/mL (≈ 7.58 µM)
MIC [2]: 20 µg/mL (≈ 30.3 µM)
MIC [3]: 30 µg/mL (≈ 45.5 µM)
MIC [4]: 20 µg/mL (≈ 30.3 µM)
MIC [5]: 50 µg/mL (≈ 75.8 µM)
MIC [6]: 20 µg/mL (≈ 30.3 µM)
MIC [7]: n.d. (n.d. = not determined, i.e., the MIC value was greater than 50 µg/mL)
MIC [8]: 5 µg/mL (≈ 7.58 µM)
HC50 [9]: 30 µg/mL < HC50< 40 µg/mL
HC50 [10]: 30 µg/mL < HC50< 40 µg/mL
effect on the bacterial growth dynamics [11]: slowed down the bacterial growth dynamics at much lower concentrations than that of the C16-fXXL lipopeptide
effect on the bacterial growth dynamics [12]: slowed down the bacterial growth dynamics at much lower concentrations than that of the C16-fXXL lipopeptide
effect on the bacterial growth dynamics [13]: slowed down the bacterial growth dynamics at much lower concentrations than that of the C16-fXXL lipopeptide
